Reference: patent publication US20250144067A1, “PERSONALIZED STARVATION THERAPY FOR CANCER” (Faeth Therapeutics, Inc., priority 2021, published 2025)
Counter-ions that a name gives are not always drawn.

Each molecule was assayed on NCI-H292 lung cancer cells (assay: FDA drug screening, complete media vs cholesterol-free media without statin (TABLE 1)). Conditions: Complete minus Cholesterol-free; greater than 0 enhanced anti-cancer activity, about 0 neutral, below 0 antagonists.
Format: cell-based, human

SMILES	Difference
CCC1(c2ccccc2)NC(=O)N(C)C1=O (centres unmarked) [Mephenytoin]	−0.62
Cc1cccc(C)c1NC(=O)C1CCCCN1C (centres unmarked) [Mepivacaine (hydrochloride)]	−0.61
Cc1cc(C)cc(OCC2CNC(=O)O2)c1 (centres unmarked) [Metaxalone]	−0.49
CN(C)C(=N)N=C(N)N [Metformin]	−0.64
C=C1c2cccc(O)c2C(=O)C2=C(O)[C@]3(O)C(=O)C(C(N)=O)=C(O)[C@@H](N(C)C)[C@@H]3[C@@H](O)[C@H]12 [Methacycline (hydrochloride)]	−0.57
CC(=O)/N=c1/sc(S(N)(=O)=O)nn1C [Methazolamide]	−0.57

Same assay, conditions: NCI-H292 cells in cholesterol-free media without statin

SMILES	Cholesterol-free
CCC1(c2ccccc2)NC(=O)N(C)C1=O (centres unmarked) [Mephenytoin]	1.604
Cc1cccc(C)c1NC(=O)C1CCCCN1C (centres unmarked) [Mepivacaine (hydrochloride)]	1.413
Cc1cc(C)cc(OCC2CNC(=O)O2)c1 (centres unmarked) [Metaxalone]	1.567
CN(C)C(=N)N=C(N)N [Metformin]	1.603
C=C1c2cccc(O)c2C(=O)C2=C(O)[C@]3(O)C(=O)C(C(N)=O)=C(O)[C@@H](N(C)C)[C@@H]3[C@@H](O)[C@H]12 [Methacycline (hydrochloride)]	1.479
CC(=O)/N=c1/sc(S(N)(=O)=O)nn1C [Methazolamide]	1.478

Same assay, conditions: NCI-H292 cells in complete media

SMILES	Complete
CCC1(c2ccccc2)NC(=O)N(C)C1=O (centres unmarked) [Mephenytoin]	0.9878
Cc1cccc(C)c1NC(=O)C1CCCCN1C (centres unmarked) [Mepivacaine (hydrochloride)]	0.805
Cc1cc(C)cc(OCC2CNC(=O)O2)c1 (centres unmarked) [Metaxalone]	1.078
CN(C)C(=N)N=C(N)N [Metformin]	0.9656
C=C1c2cccc(O)c2C(=O)C2=C(O)[C@]3(O)C(=O)C(C(N)=O)=C(O)[C@@H](N(C)C)[C@@H]3[C@@H](O)[C@H]12 [Methacycline (hydrochloride)]	0.9047
CC(=O)/N=c1/sc(S(N)(=O)=O)nn1C [Methazolamide]	0.9069

Same assay, conditions: NCI-H292 cells, cholesterol-free media without statin

SMILES	Cholesterol-free
CC(C)=CCC/C(C)=C/CC/C(C)=C/CC/C(C)=C/CC1=C(C)C(=O)c2ccccc2C1=O [Menaquinone-4]	1.129
c1ccc2c(c1)Sc1ccccc1N2CC1CN2CCC1CC2 (centres unmarked) [Mequitazine]	1.704
CN1C[C@H](CNC(=O)OCc2ccccc2)C[C@@H]2c3cccc4c3c(cn4C)C[C@H]21 [Metergoline]	1.165

Same assay, conditions: NCI-H292 cells, cholesterol-free media without statin, FDA drug library screen

SMILES	Cholesterol-free
CC1=CC(=O)c2ccccc2C1=O [Menadione]	0.7683
CC1CCC(C(C)C)C(O)C1 (centres unmarked) [Menthol]	0.9443
Cc1ccccc1OCC(O)CO (centres unmarked) [Mephenesin]	0.8638
C[C@H]1C[C@H]2[C@@H]3CCC4=CC(=O)C=C[C@]4(C)[C@H]3C(=O)C[C@]2(C)[C@@]1(O)C(=O)CO [Meprednisone]	0.7649
C[C@@H](O)[C@H]1C(=O)N2C(C(=O)O)=C(S[C@@H]3CN[C@H](C(=O)N(C)C)C3)[C@H](C)[C@H]12 [Meropenem (trihydrate)]	1.169
CN(C)C(=N)N=C(N)N [Metformin (hydrochloride)]	0.9765

Same assay, conditions: NCI-H292 cells, complete media

SMILES	Complete
CC(C)=CCC/C(C)=C/CC/C(C)=C/CC/C(C)=C/CC1=C(C)C(=O)c2ccccc2C1=O [Menaquinone-4]	0.777
c1ccc2c(c1)Sc1ccccc1N2CC1CN2CCC1CC2 (centres unmarked) [Mequitazine]	1.338
CN1C[C@H](CNC(=O)OCc2ccccc2)C[C@@H]2c3cccc4c3c(cn4C)C[C@H]21 [Metergoline]	0.7326

Same assay, conditions: NCI-H292 cells, complete media, FDA drug library screen

SMILES	Complete
CC1=CC(=O)c2ccccc2C1=O [Menadione]	1.342
CC1CCC(C(C)C)C(O)C1 (centres unmarked) [Menthol]	1.129
Cc1ccccc1OCC(O)CO (centres unmarked) [Mephenesin]	1.459
C[C@H]1C[C@H]2[C@@H]3CCC4=CC(=O)C=C[C@]4(C)[C@H]3C(=O)C[C@]2(C)[C@@]1(O)C(=O)CO [Meprednisone]	1.522
C[C@@H](O)[C@H]1C(=O)N2C(C(=O)O)=C(S[C@@H]3CN[C@H](C(=O)N(C)C)C3)[C@H](C)[C@H]12 [Meropenem (trihydrate)]	1.522
CN(C)C(=N)N=C(N)N [Metformin (hydrochloride)]	1.069

Same assay, conditions: complete vs cholesterol-free media; >0 enhanced anti-cancer activity, about 0 neutral, <0 antagonist

SMILES	Difference
CC1=CC(=O)c2ccccc2C1=O [Menadione]	0.57
CC1CCC(C(C)C)C(O)C1 (centres unmarked) [Menthol]	0.19
Cc1ccccc1OCC(O)CO (centres unmarked) [Mephenesin]	0.60
C[C@H]1C[C@H]2[C@@H]3CCC4=CC(=O)C=C[C@]4(C)[C@H]3C(=O)C[C@]2(C)[C@@]1(O)C(=O)CO [Meprednisone]	0.76
C[C@@H](O)[C@H]1C(=O)N2C(C(=O)O)=C(S[C@@H]3CN[C@H](C(=O)N(C)C)C3)[C@H](C)[C@H]12 [Meropenem (trihydrate)]	0.35
CN(C)C(=N)N=C(N)N [Metformin (hydrochloride)]	0.09

Same assay, conditions: complete vs cholesterol-free media; greater than 0 enhanced anti-cancer activity, about 0 neutral, below 0 antagonists

SMILES	Difference
CC(C)=CCC/C(C)=C/CC/C(C)=C/CC/C(C)=C/CC1=C(C)C(=O)c2ccccc2C1=O [Menaquinone-4]	−0.35
c1ccc2c(c1)Sc1ccccc1N2CC1CN2CCC1CC2 (centres unmarked) [Mequitazine]	−0.37
CN1C[C@H](CNC(=O)OCc2ccccc2)C[C@@H]2c3cccc4c3c(cn4C)C[C@H]21 [Metergoline]	−0.43

These molecules were tested on NCI-H292 lung cancer cells (assay: FDA drug screening, complete media vs cholesterol-free media with simvastatin (TABLE 2)). Conditions: NCI-H292 cells, FDA drug library screen, cholesterol-free media with simvastatin 0.04 μM.
Format: cell-based, human

SMILES	Cholesterol-free media + simvastatin (0.04 μM)
Cc1ccccc1OCC(O)CO (centres unmarked) [Mephenesin]	1.225
Cc1cccc(C)c1NC(=O)C1CCCCN1C (centres unmarked) [Mepivacaine (hydrochloride)]	1.253
CN(C)C(=N)N=C(N)N [Metformin]	1.921

Same assay, conditions: NCI-H292 cells, FDA drug library screen, complete media

SMILES	Complete Media
Cc1ccccc1OCC(O)CO (centres unmarked) [Mephenesin]	1.535
Cc1cccc(C)c1NC(=O)C1CCCCN1C (centres unmarked) [Mepivacaine (hydrochloride)]	1.396

Same assay, conditions: NCI-H292 cells, FDA library drug in cholesterol-free media with simvastatin 0.04 μM

SMILES	Cholesterol-free media + simvastatin (0.04 μM)
CC(C)=CCC/C(C)=C/CC/C(C)=C/CC/C(C)=C/CC1=C(C)C(=O)c2ccccc2C1=O [Menaquinone-4]	1.094
CCC1(c2ccccc2)NC(=O)N(C)C1=O (centres unmarked) [Mephenytoin]	1.274
Cc1cc(C)cc(OCC2CNC(=O)O2)c1 (centres unmarked) [Metaxalone]	1.3
C=C1c2cccc(O)c2C(=O)C2=C(O)[C@]3(O)C(=O)C(C(N)=O)=C(O)[C@@H](N(C)C)[C@@H]3[C@@H](O)[C@H]12 [Methacycline (hydrochloride)]	1.315

Same assay, conditions: NCI-H292 cells, FDA library drug in complete media

SMILES	Complete Media
CC(C)=CCC/C(C)=C/CC/C(C)=C/CC/C(C)=C/CC1=C(C)C(=O)c2ccccc2C1=O [Menaquinone-4]	0.773
CCC1(c2ccccc2)NC(=O)N(C)C1=O (centres unmarked) [Mephenytoin]	1.003
Cc1cc(C)cc(OCC2CNC(=O)O2)c1 (centres unmarked) [Metaxalone]	1.014
C=C1c2cccc(O)c2C(=O)C2=C(O)[C@]3(O)C(=O)C(C(N)=O)=C(O)[C@@H](N(C)C)[C@@H]3[C@@H](O)[C@H]12 [Methacycline (hydrochloride)]	0.995

Same assay, conditions: NCI-H292 cells, cholesterol-free media with simvastatin 0.04 μM; FDA drug library screen (TABLE 2)

SMILES	Cholesterol-free media + simvastatin (0.04 μM)
CC1=CC(=O)c2ccccc2C1=O [Menadione]	1.102
C[C@@H](O)[C@H]1C(=O)N2C(C(=O)O)=C(S[C@@H]3CN[C@H](C(=O)N(C)C)C3)[C@H](C)[C@H]12 [Meropenem (trihydrate)]	1.099

Same assay, conditions: NCI-H292 cells, cholesterol-free media with simvastatin 0.04 μM; cell growth value in FDA drug screen

SMILES	Cholesterol-free media + simvastatin (0.04 μM)
c1ccc2c(c1)Sc1ccccc1N2CC1CN2CCC1CC2 (centres unmarked) [Mequitazine]	0.8559
CN1C[C@H](CNC(=O)OCc2ccccc2)C[C@@H]2c3cccc4c3c(cn4C)C[C@H]21 [Metergoline]	0.7892
CN(C)C(=N)N=C(N)N [Metformin (hydrochloride)]	0.8358

Same assay, conditions: NCI-H292 cells, complete media; FDA drug library screen (TABLE 2)

SMILES	Complete Media
CC1=CC(=O)c2ccccc2C1=O [Menadione]	1.055
C[C@@H](O)[C@H]1C(=O)N2C(C(=O)O)=C(S[C@@H]3CN[C@H](C(=O)N(C)C)C3)[C@H](C)[C@H]12 [Meropenem (trihydrate)]	1.05

Same assay, conditions: NCI-H292 cells, complete media; cell growth value in FDA drug screen

SMILES	Complete Media
c1ccc2c(c1)Sc1ccccc1N2CC1CN2CCC1CC2 (centres unmarked) [Mequitazine]	0.9842
CN1C[C@H](CNC(=O)OCc2ccccc2)C[C@@H]2c3cccc4c3c(cn4C)C[C@H]21 [Metergoline]	0.8668
CN(C)C(=N)N=C(N)N [Metformin (hydrochloride)]	0.8942

Same assay, conditions: NCI-H292 cells, drug in cholesterol-free media with simvastatin 0.04 μM

SMILES	Cholesterol-free media + simvastatin (0.04 μM)
CC1CCC(C(C)C)C(O)C1 (centres unmarked) [Menthol]	1.031
C[C@H]1C[C@H]2[C@@H]3CCC4=CC(=O)C=C[C@]4(C)[C@H]3C(=O)C[C@]2(C)[C@@]1(O)C(=O)CO [Meprednisone]	1.224
CC(=O)/N=c1/sc(S(N)(=O)=O)nn1C [Methazolamide]	1.441

Same assay, conditions: NCI-H292 cells, drug in complete media

SMILES	Complete Media
CC1CCC(C(C)C)C(O)C1 (centres unmarked) [Menthol]	0.8642
C[C@H]1C[C@H]2[C@@H]3CCC4=CC(=O)C=C[C@]4(C)[C@H]3C(=O)C[C@]2(C)[C@@]1(O)C(=O)CO [Meprednisone]	0.9766
CC(=O)/N=c1/sc(S(N)(=O)=O)nn1C [Methazolamide]	1.241

Same assay, conditions: complete media minus cholesterol-free media + simvastatin (0.04 μM); >0 enhanced anti-cancer activity, about 0 neutral, <0 antagonist

SMILES	Difference
CC1=CC(=O)c2ccccc2C1=O [Menadione]	−0.05
C[C@@H](O)[C@H]1C(=O)N2C(C(=O)O)=C(S[C@@H]3CN[C@H](C(=O)N(C)C)C3)[C@H](C)[C@H]12 [Meropenem (trihydrate)]	−0.05
CN(C)C(=N)N=C(N)N [Metformin]	−0.91

Same assay, conditions: complete media minus cholesterol-free media + simvastatin; >0 enhanced anti-cancer activity, about 0 neutral, <0 antagonist

SMILES	Difference
Cc1ccccc1OCC(O)CO (centres unmarked) [Mephenesin]	0.31
Cc1cccc(C)c1NC(=O)C1CCCCN1C (centres unmarked) [Mepivacaine (hydrochloride)]	0.14
c1ccc2c(c1)Sc1ccccc1N2CC1CN2CCC1CC2 (centres unmarked) [Mequitazine]	0.13
CN1C[C@H](CNC(=O)OCc2ccccc2)C[C@@H]2c3cccc4c3c(cn4C)C[C@H]21 [Metergoline]	0.08
CN(C)C(=N)N=C(N)N [Metformin (hydrochloride)]	0.06

Same assay, conditions: complete media vs cholesterol-free media + simvastatin (0.04 μM); >0 enhanced anti-cancer activity, about 0 neutral, <0 antagonist

SMILES	Difference
CC(C)=CCC/C(C)=C/CC/C(C)=C/CC/C(C)=C/CC1=C(C)C(=O)c2ccccc2C1=O [Menaquinone-4]	−0.32
CC1CCC(C(C)C)C(O)C1 (centres unmarked) [Menthol]	−0.17
CCC1(c2ccccc2)NC(=O)N(C)C1=O (centres unmarked) [Mephenytoin]	−0.27
C[C@H]1C[C@H]2[C@@H]3CCC4=CC(=O)C=C[C@]4(C)[C@H]3C(=O)C[C@]2(C)[C@@]1(O)C(=O)CO [Meprednisone]	−0.25
Cc1cc(C)cc(OCC2CNC(=O)O2)c1 (centres unmarked) [Metaxalone]	−0.29
C=C1c2cccc(O)c2C(=O)C2=C(O)[C@]3(O)C(=O)C(C(N)=O)=C(O)[C@@H](N(C)C)[C@@H]3[C@@H](O)[C@H]12 [Methacycline (hydrochloride)]	−0.32
CC(=O)/N=c1/sc(S(N)(=O)=O)nn1C [Methazolamide]	−0.20
